This is an account of results in a melting point compilation (Tetko et al.).

In general, melting point refers to the temperature, or range, at which the solid turns liquid.

Structures are written as SMILES.

`O=C(NCCO)c1ccc(O)cc1` showed a melting point of 155 to 157 °C. On to `CC(C)CNC(=O)c1cc(N)ccc1Cl`, for which the melting point is 109 to 111 °C.

Turning to `CCOC(=O)c1cnn(-c2ccc(OCC)cc2)c1N`, the melting point lay within 119 to 121 °C.

Compound `CC(C)(C)Oc1cccc(CCC(=O)O)n1` showed a melting point of 82 to 84 °C. With `O=C(O)Cn1cnc2ccc(Br)cc2c1=O` the figure was 277 to 279 °C. The compound `O=C(CCl)Nc1cc(C(F)(F)F)ccc1N1CCOCC1` showed a melting point of 155 to 157 °C. Then `COC(=O)c1cccc(-c2nc(C)cs2)c1`, with 52 to 54 °C. With `CC(C)C(Br)C(=O)N1CCc2ccccc2C1` (stereo not given) the figure was 90 to 92 °C. In the case of `O=C(O)[C@@H]1CCCN1C(=O)Nc1ccc2c(c1)OCCO2`, the melting point was in the range of 176 to 178 °C.

The compound `CC(C)(C)OC(=O)CC(C)(C#N)C(=O)O` (stereo not given) returned a melting point of 89 to 91 °C.

As for `O=C(CCl)Nc1sc2c(c1C(=O)NCc1ccccc1)CCCC2`, the melting point was in the range of 306 to 308 °C. In the case of `Cc1ccc(S(=O)(=O)N2CCC(C(=O)O)CC2)c(C)c1`, the melting point lay in the range of 200 to 202 °C. The compound `CC(=O)NCc1ccc(C(=O)C(C)Cl)o1` (stereo not given) came in with a melting point of 64 to 66 °C.

The compound `CSc1ccccc1CC(=O)O` had a melting point of 115 to 117 °C. Then `CCn1c2ccccc2c2cc(N=C=S)ccc21`, with 118 to 120 °C; and `CC(=O)C(CN1C(=O)c2ccccc2C1=O)C(C)=O`, with 169 to 171 °C; and `O=C(O)c1csc(-c2cccc([N+](=O)[O-])c2)n1`, with 214 to 216 °C. The compound `N#CCN1CCOCC1` returned a melting point of 62 to 64 °C. With `CC(O)c1nc2ccccc2n1C` (stereo not given) the figure was 111 to 113 °C; with `O=C(O)CCS(=O)(=O)c1ccc(Cl)cc1`, 181 to 183 °C; with `CC(C)c1noc(-c2ccnc(Cl)c2)n1`, 35 to 37 °C.

Take `NC(=O)c1cccc(OCC(=O)O)c1`: the melting point was in the range of 206 to 208 °C. Then `Cc1ccccc1-c1csc(N)n1`, with 80 to 82 °C; and `O=C(O)C1CCC2CCCCC2C1` (stereo not given), with 57 to 59 °C; and `COC(=O)c1ccc(Oc2cccnc2)cc1`, with 82 to 84 °C. Compound `COC(=O)c1ccc(CBr)cc1OC` gave a melting point of 44 to 46 °C.

On to `Nc1c(-c2ccncc2)nc2ccccn12`, for which the melting point is 211 to 213 °C. Regarding `Cc1c(C(=O)O)cc([N+](=O)[O-])c(C)c1[N+](=O)[O-]`, the melting point was 201 to 203 °C. As to `NC(=O)c1ccc(-c2nn[nH]n2)cc1`, the melting point was in the range of 258 to 260 °C. Then `N#Cc1ccc(-c2nc3ccccc3[nH]2)cc1`, with 326 to 328 °C. Then `O=C1NCCc2c1ccc(Cl)c2Cl`, with 200 to 202 °C; and `CCOc1ccc(S(=O)(=O)Cl)cc1-c1ccccc1`, with 78 to 80 °C; and `CC(C)(C)c1noc2ncc(C(=O)O)cc12`, with 207 to 209 °C. For the compound `CNC(=O)c1cc(OC)c(OC)cc1N`, the melting point was in the range of 129 to 131 °C.

`NC(C(=O)O)c1ccc(Br)cc1` (stereo not given) showed a melting point of 249 to 251 °C.

In the case of `CC(C)(C)c1ncccc1O`, the melting point lay in the range of 159 to 161 °C. Then `CC(C)(C)NC(=O)NCCCl`, with 104 to 106 °C. With `Cc1cc(C(=O)O)nc2nc(O)[nH]c(=O)c12`, the melting point is 266 to 268 °C.

In turn, `CC1(c2ccccc2)CC(=O)NC(=O)C1` registered a melting point of 150 to 152 °C.

`CC(C)(C)OC(=O)N1CCc2c(sc(N)c2C#N)C1` showed a melting point of 202 to 204 °C. With `CC(C)(C)S(=O)Cc1cccc(N)c1` (stereo not given) the figure was 121 to 123 °C.

For `COc1cc(Br)c2c(c1)NC(=O)C2=O`, the melting point fell in the range of 179 to 181 °C. The compound `O=C(O)C=Cc1cn(-c2ccccc2)nc1-c1ccc(F)cc1` displayed a melting point of 229 to 231 °C. Then `O=C(O)CSc1ccccc1O`, with 51 to 53 °C; and `NC(=NO)C1CCCCC1`, with 89 to 91 °C. With `O=C(O)C1CCCN1S(=O)(=O)c1cccs1` (stereo not given) the figure was 99 to 101 °C; with `CC(Cn1cncn1)C(N)=S` (stereo not given), 169 to 171 °C; with `CC(=O)Nc1ccc(S(=O)(=O)N(C)CC(=O)O)cc1`, 225 to 227 °C. In the case of `Cc1ccc(OCCCC(=O)Nc2ccc(C#N)cc2)cc1`, the melting point was in the range of 126 to 128 °C. Compound `O=C1NC(=O)C2CC12` (stereo not given) had a melting point of 94 to 96 °C.

With `COc1ccc2c(C)cc(NN)nc2c1`, the melting point fell in the range of 250 to 252 °C.

`COc1ccccc1NS(=O)(=O)c1cc(N)ccc1N1CCCC1`: the melting point was 159 to 161 °C. `O=C(O)c1ccccc1NS(=O)(=O)c1cccc([N+](=O)[O-])c1` displayed a melting point of 185 to 187 °C. In turn, `CCCC(C)=CC(=O)O` gave a melting point of 33 to 35 °C.

Compound `Cc1ccc(-c2nn(-c3ccccc3)cc2CO)cc1C` showed a melting point of 134 to 136 °C. Then `Cc1ccc2c(CC#N)c[nH]c2c1`, with 115 to 117 °C; and `Nc1ccc(S(N)(=O)=O)c(F)c1`, with 152 to 154 °C; and `CS(=O)(=O)c1cc(S(=O)(=O)Cl)ccc1F`, with 112 to 114 °C. With `O=C(O)c1nnn(C2CC2)c1C(F)(F)F` the figure was 90 to 92 °C.

In turn, `O=C(O)C1(c2cccc(F)c2)CCCCC1` gave a melting point of 135 to 137 °C. With `O=C(O)C(=O)c1ccc(Br)cc1O` the figure was 188 to 190 °C. `COc1ccc2[nH]cc(C3=CCNCC3)c2c1` displayed a melting point of 181 to 183 °C.

`O=c1ccc([N+](=O)[O-])cn1CCCl` returned a melting point of 130 to 132 °C. Then `CN(C)C(=O)COc1cccc(C(=O)O)c1`, with 193 to 195 °C; and `O=c1[nH]c2ccc(NCc3ccc(Cl)cc3)cc2[nH]1`, with 264 to 266 °C; and `ClCc1csc(-c2ccsc2)n1`, with 64 to 66 °C. With `CC(=O)Nc1c(C)n[nH]c1C` the figure was 202 to 204 °C; with `O=C(O)C(F)=C1CCCC1`, 83 to 85 °C; with `CC1CC(C)CC2(C1)NC(=O)N(CC(=O)O)C2=O` (stereo not given), 259 to 261 °C. Compound `Fc1ccc2nc(S)n(-c3ccccc3F)c2c1` came in with a melting point of 220 to 222 °C. In turn, `O=C(O)c1cc(Cl)c2c(c1)OCO2` showed a melting point of 239 to 241 °C. Then `Nc1cc(CSCCO)ccn1`, with 90 to 92 °C; and `O=Cc1cccc(NC(=O)c2ccc(Cl)cc2)c1`, with 129 to 131 °C. The compound `CC(=O)Nc1ccc(S(=O)(=O)NCc2ccc(C(=O)O)cc2)cc1` returned a melting point of 269 to 271 °C. With `CC(C)(C)c1ccc(Oc2ccc(C=O)cc2[N+](=O)[O-])cc1` the figure was 156 to 158 °C; with `Cc1cc2cc(F)ccc2[nH]1`, 98 to 101 °C. Then `Cc1cc2c(cc1Br)NCC(C)O2` (stereo not given), with 93 to 95 °C; and `Cn1cccc1C(=O)NC(=O)CCl`, with 139 to 141 °C; and `CN(C)C1=CC(=C(N)N=O)C=CN1`, with 129 to 131 °C.

Compound `Nc1ccccc1-c1ccc(-c2ccccc2)cc1` showed a melting point of 163 to 165 °C. `CS(=O)(=O)c1ccc(C(=O)Nc2c(Cl)cc(N)cc2Cl)cc1` displayed a melting point of 238 to 240 °C. For the compound `Cn1c(CCl)nc2c1c(=O)[nH]c(=O)n2C`, the melting point fell in the range of 269 to 271 °C. `COc1ccc(NS(=O)(=O)c2ccc3oc(S)nc3c2)cc1`: the melting point lay in the range of 175 to 177 °C. Then `COc1ccc2nc(Sc3ncccc3C(=O)O)[nH]c2c1`, with 219 to 221 °C; and `Cc1nc(-c2ccc(F)cc2)sc1C(C)O` (stereo not given), with 113 to 115 °C; and `O=C(O)CCOc1ccccc1Br`, with 111 to 113 °C. `COC(=O)c1nc[nH]n1` displayed a melting point of 180 to 182 °C. Turning to `Cc1nc2c(Cl)cccc2n1O`, the melting point fell in the range of 239 to 241 °C.

`O=C(O)CCCNC(=O)c1ccsc1` registered a melting point of 235 to 237 °C.

As for `Cc1ccsc1-c1nsc(N)n1`, the melting point lay in the range of 165 to 167 °C. With `COc1ccc(CNc2ccncc2)cc1` the figure was 126 to 128 °C; with `NS(=O)(=O)c1cccc(NC(=O)c2ccc(Cl)cc2)c1`, 93 to 96 °C; with `O=Cc1cccc2nccn12`, 123 to 125 °C. The compound `Cc1ccc(C(=O)c2c(N)sc3c2CCC3)cc1` registered a melting point of 153 to 157 °C.

The compound `CCOC(=O)c1c(C)oc(N)c1C#N` gave a melting point of 98 to 100 °C. With `NC1CCN(C(=O)C2CCCCC2)CC1` the figure was 78 to 80 °C.

As to `Clc1ccc(-n2cccn2)cc1Cl`, the melting point lay in the range of 59 to 61 °C. Then `CNC(=O)c1ccc(Cl)cc1N`, with 93 to 95 °C. For `Cc1ccc(-c2cc(C(=O)O)on2)cc1`, the melting point was 204 to 206 °C.

Consider `CNc1ccc(Cl)nn1`, for which the melting point is 194 to 196 °C. Then `NNC(=O)CCN1CCCC1`, with 137 to 139 °C. Turning to `CC(C)(C)OC(=O)N1CCN(S(=O)(=O)Cl)CC1`, the melting point lay in the range of 148 to 150 °C.

Turning to `CCOC(=O)c1nc(-c2ccccc2)oc1CBr`, the melting point lay in the range of 94 to 96 °C. The compound `O=C(Nc1ccccn1)C1CCNCC1` displayed a melting point of 113 to 115 °C. With `Cc1ccc(NC(=O)OC(C)(C)C)cc1O` the figure was 109 to 111 °C; with `Cc1cc(C(=O)O)c2c(C)nn(C(C)(C)C)c2n1`, 189 to 191 °C; with `Cc1c(Cl)ccc2ccc(Cl)nc12`, 92 to 94 °C.

Compound `O=C(CN1CCNCC1)Nc1ccc(F)cc1` showed a melting point of 72 to 81 °C.

On to `CCCc1ccc(C(=O)CCl)cc1`, for which the melting point lay within 30 to 32 °C. The compound `CCNCc1cccc(NC(=O)c2cc(Cl)c[nH]2)c1` registered a melting point of 126 to 128 °C. The compound `N=C(NN)c1cc(Cl)ccn1` registered a melting point of 248 to 250 °C. With `O=c1[nH]c(CCl)nc2c1oc1ccccc12`, the melting point was 98 to 100 °C. With `N#CCC(=O)CCc1ccccc1` the figure was 69 to 71 °C; with `NC1CN(S(=O)(=O)c2ccc3c(c2)OCCO3)C1`, 124 to 126 °C. With `COC(=O)c1ccc(C(=O)O)o1` the figure was 194 to 196 °C. With `Nc1nc2c(Cl)c(Cl)ccc2s1` the figure was 129 to 131 °C. Turning to `Nc1ccc(N2CCOCC2)cn1`, the melting point lay within 143 to 145 °C. With `CCC(C(=O)O)n1nnc(-c2ccc(Cl)cc2)n1` (stereo not given) the figure was 184 to 186 °C; with `CCNC(=O)Cn1ccc(N)n1`, 124 to 126 °C; with `O=C(Nc1cccc(-c2nnco2)c1)OCC(F)(F)F`, 170 to 172 °C.
